IC50 data for 41 molecules are collected here from patent US10266526B2, “Substituted 1,2,3-triazoles as SMYD inhibitors for treating cancer” (EPIZYME, INC., priority 2014, dated 2019).

This test deals with SMYD3 (Homo sapiens (Human), UniProt Q9H7B4). Put plainly: SMYD3 biochemical assay (SMYD3 enzyme assay on MEKK2 protein substrate, 3H-SAM scintillation proximity assay). Particulars: read-out: SMYD3 Biochem IC50. In short, it runs like this:
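Native full-length human SMYD3, expressed in E. coli, was preincubated with compound for 30 min at room temperature in 25 mM Tris-Cl pH 8.0, 1 mM TCEP, 0.005% BSG and 0.005% Tween 20. ³H-SAM plus GST-MEKK2 then started the reaction. It was stopped with unlabeled SAM (100 uM final), and methylated MEKK2 was read by SPA.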
Background: Scintillation proximity formats need no separation of bound from free tracer.

SMYD3, sequence (Q9H7B4 whole entry): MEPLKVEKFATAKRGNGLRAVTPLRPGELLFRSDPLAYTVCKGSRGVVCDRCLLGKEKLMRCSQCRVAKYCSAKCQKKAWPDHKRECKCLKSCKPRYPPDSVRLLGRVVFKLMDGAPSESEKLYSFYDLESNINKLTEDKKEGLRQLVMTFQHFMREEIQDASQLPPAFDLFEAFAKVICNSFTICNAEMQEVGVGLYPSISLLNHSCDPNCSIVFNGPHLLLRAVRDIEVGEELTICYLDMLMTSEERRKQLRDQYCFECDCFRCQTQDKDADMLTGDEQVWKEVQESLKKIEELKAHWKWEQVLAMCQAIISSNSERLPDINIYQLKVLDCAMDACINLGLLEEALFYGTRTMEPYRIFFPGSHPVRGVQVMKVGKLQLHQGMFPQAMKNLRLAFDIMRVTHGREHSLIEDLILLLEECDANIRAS

Turning to `CN(C(=O)CN)C1CCC(NC(=O)c2ccc3c(c2)CC(=O)N3)CC1` (centres unmarked) [compound 214, N-(4-(2-amino-N-methylacetamido)cyclohexyl)-2-oxoindoline-5-carboxamide], the IC50 – broadly, the midpoint of a concentration-inhibition curve – stood at 1.25 µM.

Consider `Cc1cnc(C(=O)N[C@H]2CC[C@H](NC(=O)CCN)CC2)cn1` [compound 215, N-((1r,4r)-4-(3-aminopropanamido)cyclohexyl)-5-methylpyrazine-2-carboxamide], for which the IC50 is above 100 µM. In the case of `Cc1nn(C(C)C(=O)NC(C)C2CCN(C(=O)[C@H](C)N)CC2)c(C)c1Br` (stereo partly drawn) [compound 216, N-(1-(1-(L-alanyl)piperidin-4-yl)ethyl)-2-(4-bromo-3,5-dimethyl-1H-pyrazol-1-yl)propanamide] it was above 100 µM; in that of `Cc1c(C(=O)NC(C)C2CCN(C(=O)[C@H](C)N)CC2)nnn1-c1ccccc1` (stereo partly drawn) [compound 217, N-(1-(1-(L-alanyl)piperidin-4-yl)ethyl)-5-methyl-1-phenyl-1H-1,2,3-triazole-4-carboxamide], above 100 µM.

Consider `CC1=NN(c2ccc(C(=O)NC(C)C3CCN(C(=O)[C@H](C)N)CC3)cc2)C(=O)C1` (stereo partly drawn) [compound 218, N-(1-(1-(L-alanyl)piperidin-4-yl)ethyl)-4-(3-methyl-5-oxo-4,5-dihydro-1H-pyrazol-1-yl)benzamide], for which the IC50 worked out at 77 µM.

Regarding `CC(NC(=O)c1ccc2cnn(C)c2c1)C1CCN(C(=O)[C@H](C)N)CC1` (stereo partly drawn) [compound 219, N-(1-(1-(L-alanyl)piperidin-4-yl)ethyl)-1-methyl-1H-indazole-6-carboxamide], the concentration for half-maximal inhibition (IC50) was above 100 µM. In the case of `COc1ccc2cc(C(=O)NC(C)C3CCN(C(=O)[C@H](C)N)CC3)ccc2c1` (stereo partly drawn) [compound 220, N-(1-(1-(L-alanyl)piperidin-4-yl)ethyl)-6-methoxy-2-naphthamide] it was above 100 µM; in that of `COc1cc(C(=O)NC(C)C2CCN(C(=O)[C@H](C)N)CC2)c2ccccc2n1` (stereo partly drawn) [compound 221, N-(1-(1-(L-alanyl)piperidin-4-yl)ethyl)-2-methoxyquinoline-4-carboxamide], above 100 µM; in that of `COc1cc(C(=O)N[C@H]2CC[C@H](NC(=O)CCN)CC2)c2ccccc2n1` [compound 222, N-((1r,4r)-4-(3-aminopropanamido)cyclohexyl)-2-methoxyquinoline-4-carboxamide], above 100 µM.

As to `COc1cc(C(=O)N[C@H]2CC[C@H](N)CC2)c2ccccc2n1` [compound 223, N-((1r,4r)-4-aminocyclohexyl)-2-methoxyquinoline-4-carboxamide], the IC50 was above 100 µM. In the case of `CC(NC(=O)c1cc(=O)c2ccccc2o1)C1CCN(C(=O)[C@H](C)N)CC1` (stereo partly drawn) [compound 224, N-(1-(1-(L-alanyl)piperidin-4-yl)ethyl)-4-oxo-4H-chromene-2-carboxamide] it was above 100 µM. In the case of `CC(NC(=O)c1cc(O)c2ccccc2n1)C1CCN(C(=O)[C@H](C)N)CC1` (stereo partly drawn) [compound 225, N-(1-(1-(L-alanyl)piperidin-4-yl)ethyl)-4-hydroxyquinoline-2-carboxamide] it was above 100 µM; in that of `CC(NC(=O)c1ccc(-n2cnnc2)cc1)C1CCN(C(=O)[C@H](C)N)CC1` (stereo partly drawn) [compound 226, N-(1-(1-(L-alanyl)piperidin-4-yl)ethyl)-4-(4H-1,2,4-triazol-4-yl)benzamide], above 100 µM. Under `CC(NC(=O)c1ccc(N2CCCC2)cc1)C1CCN(C(=O)[C@H](C)N)CC1` (stereo partly drawn) [compound 227, N-(1-(1-(L-alanyl)piperidin-4-yl)ethyl)-4-(pyrrolidin-1-yl)benzamide] stands 29.2 µM; under `CC(NC(=O)c1ccc2ncsc2c1)C1CCN(C(=O)[C@H](C)N)CC1` (stereo partly drawn) [compound 228, N-(1-(1-(L-alanyl)piperidin-4-yl)ethyl)benzo[d]thiazole-6-carboxamide], above 100 µM. `CC(NC(=O)c1cc2cc(Cl)ccc2[nH]1)C1CCN(C(=O)[C@H](C)N)CC1` (stereo partly drawn) [compound 229, N-(1-(1-(L-alanyl)piperidin-4-yl)ethyl)-5-chloro-1H-indole-2-carboxamide]: the IC50 worked out at 77.9 µM. Under `NCCC(=O)N[C@H]1CC[C@H](NC(=O)c2cc3cc(Cl)ccc3[nH]2)CC1` [compound 230, N-((1r,4r)-4-(3-aminopropanamido)cyclohexyl)-5-chloro-1H-indole-2-carboxamide] stands 37.5 µM; under `N[C@H]1CC[C@H](NC(=O)c2cc3cc(Cl)ccc3[nH]2)CC1` [compound 231, N-((1r,4r)-4-aminocyclohexyl)-5-chloro-1H-indole-2-carboxamide], 91.5 µM; under `CC(NC(=O)c1cc2ccccc2[nH]1)C1CCN(C(=O)[C@H](C)N)CC1` (stereo partly drawn) [compound 232, N-(1-(1-(L-alanyl)piperidin-4-yl)ethyl)-1H-indole-2-carboxamide], above 100 µM. Under `NCCC(=O)N[C@H]1CC[C@H](NC(=O)c2cc3ccccc3[nH]2)CC1` [compound 233, N-((1r,4r)-4-(3-aminopropanamido)cyclohexyl)-1H-indole-2-carboxamide] stands above 100 µM; under `N[C@H]1CC[C@H](NC(=O)c2cc3ccccc3[nH]2)CC1` [compound 234, N-((1r,4r)-4-aminocyclohexyl)-1H-indole-2-carboxamide], above 100 µM; under `NCCC(=O)N[C@H]1CC[C@H](NC(=O)c2ccc3[nH]ccc3c2)CC1` [compound 235, N-((1r,4r)-4-(3-aminopropanamido)cyclohexyl)-1H-indole-5-carboxamide], 13.4 µM. Turning to `CC(NC(=O)c1ccc2c(c1)no[n+]2[O-])C1CCN(C(=O)[C@H](C)N)CC1` (stereo partly drawn) [compound 236, 5-((1-(1-(L-alanyl)piperidin-4-yl)ethyl)carbamoyl)benzo[c][1,2,5]oxadiazole 1-oxide], the IC50 is above 100 µM. In the case of `CC(NC(=O)c1ccc2nonc2c1)C1CCN(C(=O)[C@H](C)N)CC1` (stereo partly drawn) [compound 237, N-(1-(1-(L-alanyl)piperidin-4-yl)ethyl)benzo[c][1,2,5]oxadiazole-5-carboxamide] it was above 100 µM. Consider `CC(NC(=O)c1cnc2ccccc2n1)C1CCN(C(=O)[C@H](C)N)CC1` (stereo partly drawn) [compound 238, N-(1-(1-(L-alanyl)piperidin-4-yl)ethyl)quinoxaline-2-carboxamide], for which the IC50 was above 100 µM.

Take `CC(NC(=O)c1cn2ccsc2n1)C1CCN(C(=O)[C@H](C)N)CC1` (stereo partly drawn) [compound 239, N-(1-(1-(L-alanyl)piperidin-4-yl)ethyl)imidazo[2,1-b]thiazole-6-carboxamide]: the IC50 is above 100 µM. In the case of `CC(NC(=O)CCCn1ccnc1)C1CCN(C(=O)[C@H](C)N)CC1` (stereo partly drawn) [compound 241, N-(1-(1-(L-alanyl)piperidin-4-yl)ethyl)-4-(1H-imidazol-1-yl)butanamide] it was 82.9 µM; in that of `N[C@H]1CC[C@H](NC(=O)c2cc3cc(F)ccc3[nH]2)CC1` [compound 242, N-((1r,4r)-4-aminocyclohexyl)-5-fluoro-1H-indole-2-carboxamide], above 100 µM; in that of `CC(NC(=O)c1nc2ccccc2[nH]1)C1CCN(C(=O)[C@H](C)N)CC1` (stereo partly drawn) [compound 243, N-(1-(1-(L-alanyl)piperidin-4-yl)ethyl)-1H-benzo[d]imidazole-2-carboxamide], 72.9 µM. Under `CC(NC(=O)c1cc2ccccc2n1C)C1CCN(C(=O)[C@H](C)N)CC1` (stereo partly drawn) [compound 244, N-(1-(1-(L-alanyl)piperidin-4-yl)ethyl)-1-methyl-1H-indole-2-carboxamide] stands above 100 µM; under `Cn1c(C(=O)N[C@H]2CC[C@H](NC(=O)CCN)CC2)cc2ccccc21` [compound 245, N-((1r,4r)-4-(3-aminopropanamido)cyclohexyl)-1-methyl-1H-indole-2-carboxamide], above 100 µM. Regarding `Cn1c(C(=O)N[C@H]2CC[C@H](N)CC2)cc2ccccc21` [compound 246, N-((1r,4r)-4-aminocyclohexyl)-1-methyl-1H-indole-2-carboxamide], the IC50 is above 100 µM. For `CC(NC(=O)c1cnccc1N)C1CCN(C(=O)[C@H](C)N)CC1` (stereo partly drawn) [compound 247, N-(1-(1-(L-alanyl)piperidin-4-yl)ethyl)-4-aminonicotinamide], the IC50 was above 100 µM. Under `CC(NC(=O)c1cccc2[nH]ccc12)C1CCN(C(=O)[C@H](C)N)CC1` (stereo partly drawn) [compound 248, N-(1-(1-(L-alanyl)piperidin-4-yl)ethyl)-1H-indole-4-carboxamide] stands above 100 µM. Regarding `CC(NC(=O)c1ccnc(O)c1)C1CCN(C(=O)[C@H](C)N)CC1` (stereo partly drawn) [compound 249, N-(1-(1-(L-alanyl)piperidin-4-yl)ethyl)-2-hydroxyisonicotinamide], the IC50 was determined as 65.9 µM. In the case of `CC(NC(=O)c1ccnc(O)c1)C1CCN(C(=O)[C@H](C)N)CC1` (stereo partly drawn) [compound 250, N-(1-(1-(L-alanyl)piperidin-4-yl)ethyl)-2-hydroxyisonicotinamide] it was above 100 µM. Consider `N[C@H]1CC[C@H](NC(=O)c2ccccn2)CC1` [compound 251, N-((1r,4r)-4-aminocyclohexyl)picolinamide], for which the 50% inhibitory concentration (IC50) is above 100 µM. In the case of `NCCC(=O)N[C@H]1CC[C@H](NC(=O)c2cnccn2)CC1` [compound 252, N-((1r,4r)-4-(3-aminopropanamido)cyclohexyl)pyrazine-2-carboxamide] it was 37.4 µM; in that of `CC(NC(=O)c1nccn1C)C1CCN(C(=O)[C@H](C)N)CC1` (stereo partly drawn) [compound 253, N-(1-(1-(L-alanyl)piperidin-4-yl)ethyl)-1-methyl-1H-imidazole-2-carboxamide], 64.9 µM. Under `Cc1cnccc1C(=O)NC(C)C1CCN(C(=O)[C@H](C)N)CC1` (stereo partly drawn) [compound 254, N-(1-(1-(L-alanyl)piperidin-4-yl)ethyl)-3-methylisonicotinamide] stands above 100 µM; under `Cc1ccncc1C(=O)NC(C)C1CCN(C(=O)[C@H](C)N)CC1` (stereo partly drawn) [compound 255, N-(1-(1-(L-alanyl)piperidin-4-yl)ethyl)-4-methylnicotinamide], 73.4 µM.
